Consider 1 molecule from patent publication US20250213573A1, “PHARMACEUTICAL COMPOSITION COMPRISING JAK INHIBITOR, PREPARATION METHOD THEREFOR AND USE THEREOF” (BEIJING MAXINOVEL PHARMACEUTICALS CO., LTD., priority 2022, published 2025).

The structures appear in SMILES notation.

The series can be described thus: Saturation solubility test of the compound of formula I in different solvents. To be noted: thermodynamic from solid. It is filed as physicochemical. From the text: Example 1: Saturation Solubility Test of the Compound of Formula I in Different Solvents

Take `CCS(=O)(=O)N1CC(C(CC#N)n2cc(-c3nc(Nc4cnn(C)c4)nc4ccsc34)cn2)C1` (centres unmarked) [Compound of formula I]: the solubility – broadly, the concentration that dissolves in the medium under given conditions – is, setting by setting: (aqueous buffer, saturation solubility in pH 2 phosphate buffer) 0.016 mg/mL; (aqueous buffer, saturation solubility in pH 4 phosphate buffer) 0.001 mg/mL; (aqueous buffer, saturation solubility in pH 6 phosphate buffer) 0.001 mg/mL; (aqueous buffer, saturation solubility in pH 8 phosphate buffer) 0.001 mg/mL; (oil or lipid, saturation solubility in Corn oil) 0.014 mg/mL; (oil or lipid, saturation solubility in Medium chain triglycerides) 0.075 mg/mL. Further, the solubility reads like this: (oil or lipid, saturation solubility in Oleic acid) 0.23 mg/mL; (oil or lipid, saturation solubility in Olive oil) 0.014 mg/mL; (oil or lipid, saturation solubility in Soybean oil) 0.018 mg/mL; (organic solvent or mixture, saturation solubility in Anhydrous ethanol) 0.24 mg/mL; (organic solvent or mixture, saturation solubility in Diethylene glycol monoethyl ether) 14 mg/mL; (organic solvent or mixture, saturation solubility in Dimethyl sulfoxide) 302 mg/mL. The solubility by setting is: (organic solvent or mixture, saturation solubility in Ethyl acetate) 2.34 mg/mL; (organic solvent or mixture, saturation solubility in Glycerol) 0.07 mg/mL; (organic solvent or mixture, saturation solubility in Polyethylene glycol 400) 26.7 mg/mL; (organic solvent or mixture, saturation solubility in Propylene glycol) 0.99 mg/mL; (saturation solubility in Pure water) 0.001 mg/mL.
